Data taken from ChEMBL document CHEMBL5346950, “Development of Biaryl-Containing Aldo-Keto Reductase 1C3 (AKR1C3) Inhibitors for Reversing AKR1C3-Mediated Drug Resistance in Cancer Treatment” (J Med Chem, 2023).

Tests used:
[1] = biological target: T1, Aldo-keto reductase family 1 member C1 (Homo sapiens, UniProt Q04828); assay: Inhibition of human recombinant AKR1C1 transfected in Escherichia coli BL21 (DE3) pLysS competent cells using S-tetralol as substrate assessed as inhibition of NADP+ dependent substrate oxidation incubated for 10 mins by fluorescence microplate reader assay
T1 sequence (Q04828 whole entry): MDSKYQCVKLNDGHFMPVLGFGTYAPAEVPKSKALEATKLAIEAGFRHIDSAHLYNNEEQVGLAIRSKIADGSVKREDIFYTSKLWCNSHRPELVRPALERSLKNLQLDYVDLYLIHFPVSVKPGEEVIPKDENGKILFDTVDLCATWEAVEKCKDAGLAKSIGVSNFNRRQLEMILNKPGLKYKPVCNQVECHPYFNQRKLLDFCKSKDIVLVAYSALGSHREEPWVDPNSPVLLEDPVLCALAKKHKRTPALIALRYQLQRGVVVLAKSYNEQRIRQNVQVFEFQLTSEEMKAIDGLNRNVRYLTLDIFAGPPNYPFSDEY

[2] = Clearance in Sprague-Dawley rat at 2 mg/kg, iv measured for 5760 mins by LC-MS/MS analysis; type: ADME, organism-based; conditions: in vivo
[3] = Bioavailability in Sprague-Dawley rat at 10 mg/kg, IG measured for 5760 mins by LC-MS/MS analysis; type: ADME, organism-based; conditions: in vivo, po
[4] = Toxicity in BALB/c nude mouse xenografted with human MCF7 cells expressing AKR1C3 assessed as histopathological changes in lungs at 10 mg/kg, po administered every 2 days for 3 weeks in presence of doxorubicin by H and E staining based analysis; type: organism-based; conditions: in vivo, 504 h
MCF7 [5] = assay: Synergistic antiproliferative activity against human MCF7 cells overexpressing AKR1C3 assessed as combination index at 10 uM incubated for 72 hrs in presence of doxorubicin at 50 nM by Chou-Talalay method; type: functional
MCF7 [6] = assay: Synergistic antiproliferative activity against human MCF7 cells overexpressing AKR1C3 assessed as combination index at 10 uM incubated for 72 hrs in presence of doxorubicin at 100 nM by Chou-Talalay method; type: functional
MCF7 [7] = assay: Synergistic antiproliferative activity against human MCF7 cells overexpressing AKR1C3 assessed as combination index at 50 uM incubated for 72 hrs in presence of doxorubicin at 200 nM by Chou-Talalay method; type: functional
MCF7 [8] = assay: Synergistic antiproliferative activity against human MCF7 cells overexpressing AKR1C3 assessed as dose reduction index for doxorubicin at 25 uM incubated for 72 hrs in presence of doxorubicin at 20 nM by Chou-Talalay method; type: functional

O=C(O)C1(c2ccc(-c3cc(Cl)cc(Cl)c3)c(F)c2)CC1
IC50 [1]: 2930 nM
clearance [2]: 52.3 mL/min/kg
bioavailability [3]: 53.7%
Activity [4]: Non-Toxic
CI (MCF7 [5]): 0.285
CI (MCF7 [6]): 0.326
CI (MCF7 [7]): 0.154
Activity_index (MCF7 [8]): 11.001
